Measurements as given in US7488716B2 (priority 2001, dated 2009).
Where a SMILES comes first, the peptide text is derived from it. Where no end group is shown, it is not given here. The star is where a group is joined. PEG 22kD = 22 kDa polyethylene glycol (on cysteine); Palmitoyl = CCCCCCCCCCCCCCCC(=O)*

Key:
[1] = biological target: T1, GLP-1 receptor (Rattus norvegicus, UniProt P32301); test: Peptide signaling through GLP-1 receptor, cAMP scintillation proximity assay in RINm5F cells; assay type: cell-based; conditions: for GLP1 Relative Potency: EC50 of native GLP-1 (7-36) divided by EC50 of polypeptide x 100, cAMP in RINm5F cells; for % GLP1 max: maximal cAMP activity relative to native GLP-1 (7-36), RINm5F cells; for Emax: RIN-m5F, read-out: % GLP1 max
T1 construct: endogenous in cells; host or cells: RINm5F cells
T1 sequence (P32301 22-463): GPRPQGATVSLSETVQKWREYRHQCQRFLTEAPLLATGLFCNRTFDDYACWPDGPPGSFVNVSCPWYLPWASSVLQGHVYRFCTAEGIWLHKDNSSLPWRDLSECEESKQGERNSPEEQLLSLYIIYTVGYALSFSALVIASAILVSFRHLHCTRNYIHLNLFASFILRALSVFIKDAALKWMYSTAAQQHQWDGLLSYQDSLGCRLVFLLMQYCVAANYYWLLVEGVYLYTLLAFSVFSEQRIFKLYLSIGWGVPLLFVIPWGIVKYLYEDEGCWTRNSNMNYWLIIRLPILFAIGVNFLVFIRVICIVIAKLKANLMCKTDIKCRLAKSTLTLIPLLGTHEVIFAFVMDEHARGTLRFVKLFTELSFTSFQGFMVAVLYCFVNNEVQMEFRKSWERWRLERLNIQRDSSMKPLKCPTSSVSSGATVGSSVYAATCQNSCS
Procedure: The media was removed and the cells were washed twice with PBS. […] For assay of peptides conjugated with fatty acid, the BSA was omitted from the incubation buffer. The incubation buffer was removed, and the cells were lysed in the lysis reagent provided with the cAMP Scintillation Proximity Assay (SPA) direct screening assay system (Amersham Pharmacia Biotech Inc, Piscataway, N.J.). The amount of cAMP (in pmol) present in the lysates was determined following instructions provided with this kit.
The amount of cAMP (in pmol) produced at each concentration of peptide was plotted and analyzed by nonlinear regression using Prizm software to determine the EC50 for each peptide.

[2] = Intraperitoneal glucose tolerance testing (IPGTT) in rats or mice; assay type: in vivo; conditions: ipGTT in mice 3 hours post dosing with 100 μg/kg peptide
Procedure: Blood glucose levels during intraperitoneal glucose tolerance testing in rats or mice by some polypeptides of the invention were measured as follows. The in vivo activity of the polypeptides of the invention when administered subcutaneously was examined in rats or mice. Rats or mice fasted overnight were given a subcutaneous injection of control or peptide (100 μg/kg). Basal blood glucose was measured prior to administration of peptides or three or 17 hours after administration of derivatized peptides, and the rats or mice were given 2 g/kg of glucose intraperitoneally. Blood glucose was measured again after 15, 30 and 60 minutes in rats or 30 and 60 minutes in mice.

[3] = biological target: T2, glucagon receptor (Rattus norvegicus, UniProt P30082); test: Competitive binding of peptide to the glucagon receptor in rat liver plasma membranes (125I glucagon)
T2 construct: glucagon receptor present in the plasma membranes isolated from rat liver; from tissue; host or cells: rat liver plasma membranes
T2 sequence (P30082 27-485): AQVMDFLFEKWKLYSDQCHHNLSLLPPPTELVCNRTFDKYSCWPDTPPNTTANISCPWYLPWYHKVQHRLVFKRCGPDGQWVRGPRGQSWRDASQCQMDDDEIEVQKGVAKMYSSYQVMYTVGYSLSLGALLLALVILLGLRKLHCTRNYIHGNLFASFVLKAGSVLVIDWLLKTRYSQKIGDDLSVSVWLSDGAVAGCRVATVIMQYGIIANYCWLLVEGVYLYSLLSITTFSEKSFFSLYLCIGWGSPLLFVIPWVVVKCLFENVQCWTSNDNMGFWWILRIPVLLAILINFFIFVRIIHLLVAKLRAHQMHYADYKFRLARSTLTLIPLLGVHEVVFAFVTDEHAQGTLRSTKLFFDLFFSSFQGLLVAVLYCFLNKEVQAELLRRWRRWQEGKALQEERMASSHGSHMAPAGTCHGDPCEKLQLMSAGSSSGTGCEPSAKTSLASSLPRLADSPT
Procedure: The wet weight of the livers was determined and the tissue minced in 5 volumes of ice cold TES buffer and a slurry prepared using a polytron. All buffers and spins were kept at 4° C. The slurry was further homogenized using three strokes of a handheld dounce homogenizer. The homogenate was passed through several layers of cheesecloth and spun at 25,000×g for 10 minutes. Pellets were homogenized in 22.1 ml TES buffer using 10 strokes of a handheld dounce homogenizer. Twenty-seven point nine milliliters of 2.4 M sucrose in TE was added and mixed well. The homogenate was distributed among several tubes, and each tube was overlaid with 7 ml of TES buffer. The tubes were spun at 120,000×g for 60 minutes. The plasma membranes were removed from the interface that formed during the spin, diluted in TES and concentrated using a 15 minute spin at 200,000×g. The resulting pellet was again homogenized in 9.8 ml TES buffer, combined with 10.3 ml 2.4M sucrose, overlaid with 7 ml TES, and centrifuged at 180,000×g for 30 min. […] The final pellet was resuspended in TES. Plasma membranes were stored at −80° C. until ready for use.
(§1) Competitive binding of some polypeptides of the invention to rat liver plasma membranes was measured as follows. Ninety-six-well GF/C filtration plates (Millipore, Bedford, Mass.) were blocked with 0.1% PEI for at least one hour and washed twice with binding buffer consisting of 20 mM Tris, 2 mM EDTA, pH 7.5, 1 mg/ml BSA, and 1 mg/ml bacitracin. […] The plates were dried, scintillant was added to each well, and cpm per well determined using a Wallac Microbeta counter.

[4] = biological target: T1, GLP-1 receptor; test: Competitive binding of peptide to the GLP-1 receptor in RINm5F cell plasma membranes (125I GLP-1); conditions: read-out: GLP1 RIN IC50
Procedure: Flasks of RINm5F cells were washed with PBS, scraped in 20 mM Hepes-1 mM EDTA-250 mM sucrose buffer containing protease inhibitors (HES) and homogenized in a dounce homogenizer followed by repeated resuspension through a 23 gauge needle. Unbroken cells and nuclei were removed by centrifugation at 500×g for 5 minutes. The pellet was resuspended in HES buffer using a 23 gauge needle and the centrifugation was repeated. The supernatants from the two spins were combined and centrifuged at 40,000×g for 20 min. The resulting plasma membrane pellet was resuspended in HES buffer using a 23 gauge needle followed by a 25 gauge needle. Membranes were stored at −80° C. until use.
as §1, with “RINm5F cell” for “rat liver”, “0.3%” for “0.1%”

Molecule	GLP1 Relative Potency [1]	% GLP1 max [1]	IC50 [3]	IC50 [4]	Emax [1]	In vivo Decrease IpGTT AUC [2]
HSQGTFTSDYAKYLDARRAKEFIAWLVKGRC(22kD) (HSQGTFTSDYAKYLDARRAKEFIAWLVKGRC(PEG 22kD); listed as Homo sapiens) [G277, 22kD PEG linked to the cysteine residue]	1.8%	93.7%				46%
HSQGTFTSDYAKYLDARRAKEFIAWLVKGRG [G51]	58.1%		154 nM	8.2 nM	91.2%	
HSQGTFTSDYAKYLDARRAKEFIAWLVKGCG [G76]	7.7%		59.1 nM	10.2 nM	85%	
HSQGTFTSDYARYLDAKKAKEFIAWLVKGRG [G59]	22.7%		97.5 nM	2.1 nM	102%	
HSQGTFTSDYAKYLDAAKAKEFIAWLVKGRG [G60]	22.3%		682 nM	13.8 nM	95.7%	
HSQGTFTSDYSKYLEGQAAKEFIAWLVKGR-NH2 [G5]	69.9%		243 nM	0.5 nM	109%	
CCCCCCCCCCCCCCCC(=O)NCCCC[C@H](NC(=O)[C@H](C)NC(=O)[C@H](CCCNC(=N)N)NC(=O)[C@H](CCCNC(=N)N)NC(=O)[C@H](C)NC(=O)[C@H](CC(=O)O)NC(=O)[C@H](CC(C)C)NC(=O)[C@H](Cc1ccc(O)cc1)NC(=O)[C@H](CCCNC(=N)N)NC(=O)[C@H](C)NC(=O)[C@H](Cc1ccc(O)cc1)NC(=O)[C@H](CC(=O)O)NC(=O)[C@H](CO)NC(=O)[C@@H](NC(=O)[C@H](Cc1ccccc1)NC(=O)[C@@H](NC(=O)CNC(=O)[C@H](CCC(N)=O)NC(=O)[C@H](CO)NC(=O)[C@@H](N)Cc1c[nH]cn1)[C@@H](C)O)[C@@H](C)O)C(=O)N[C@@H](CCC(=O)O)C(=O)N[C@@H](Cc1ccccc1)C(=O)N[C@H](C(=O)N[C@@H](CCCCN)C(=O)N[C@@H](Cc1c[nH]c2ccccc12)C(=O)N[C@@H](CC(C)C)C(=O)N[C@H](C(=O)N[C@@H](CCCNC(=N)N)C(=O)NCC(=O)N[C@@H](CCCNC(=N)N)C(=O)NCC(=O)O)C(C)C)[C@@H](C)CC [G183] (H-HSQGTFTSDYARYLDARRAK(Palmitoyl)EFIKWLVRGRG-OH; N-terminus and C-terminus assumed)	0.6%				90.5%	27%
HSQGTFTSDYARYLDARRAREFIKWLVRGRC(22kD) (HSQGTFTSDYARYLDARRAREFIKWLVRGRC(PEG 22kD); listed as Homo sapiens) [G2185, 22kD PEG linked to the cysteine residue]	6.2%	112.7%				44%
HSQGTFTSDYAKYLDAARAKEFIAWLVKGR-NH2 [G57]	18.3%		178 nM	14.7 nM	132%	
HSQGTFTSDYARYLDARRAKEFIAWLVKGR-NH2 [G55]	18.6%		139 nM	9.8 nM	116%	
HSQGTFTSDYAKYLDARRAKEFIAWLVKGRC [G77]	9.5%		61.1 nM	8.9 nM	92.1%	
HSQGTFTSDYARYLDAAKAKEFIAWLVKGRG [G61]	12.1%		232 nM	10.6 nM	96%	
HSQGTFTSDYAKYLDAKKAKEFIAWLVKGRG [G58]	76.1%		163 nM	6.9 nM	99%	
HSQGTFTSDYAAYLDARRAKEFIAWLVKGR-NH2 [G56]	37.2%		125 nM	6.6 nM	115%	

More lines, in order of falling IC50 [3], values ahead:

GLP1 Relative Potency [1]	% GLP1 max [1]	IC50 [3]	IC50 [4]	Emax [1]	Molecule	In vivo Decrease IpGTT AUC [2]
6.6%		54 nM	7.7 nM	86.1%	HSQGTFTSDYAKYLDARRAKEFIAWLVKCRG [G75]	
13.0%		48 nM	4.5 nM	104%	HSQGTFTSDYARYLDARRAREFIKWLVRGRC [G185]	
29.9%		33.6 nM	8.1 nM	97.1%	HSQGTFTSDYARYLDARRAKEFIAWLVRGRG [G82]	
29.9%		28.6 nM	3.2 nM	89.4%	HSQGTFTSDYARYLDARRAREFIKWLVRGRG [G83]	
4.3%		25.6 nM	5.8 nM	93.3%	HSQGTFTSDYAKYLDARRACEFIAWLVKGRG [G71]	
8.4%		21.7 nM	4.4 nM	88.7%	HSQGTFTSDYAKYLDARRAKEFIAWLVCGRG [G74]	
64.5%		16.1 nM	1.5 nM	95.8%	HSQGTFTSDYARYLDARRAREFIAWLVRGRGK [G85]	
61.8%		11.7 nM	1.4 nM	114%	HSQGTFTSDYARYLDARRAREFIAWLVKGRG [G84]	
6.9%		6.6 nM	6 nM	112%	CC(C)C[C@H](NC(=O)[C@H](Cc1ccc(O)cc1)NC(=O)[C@H](CCCCN)NC(=O)[C@H](CO)NC(=O)[C@H](Cc1ccc(O)cc1)NC(=O)[C@H](CC(=O)O)NC(=O)[C@H](CO)NC(=O)[C@@H](NC(=O)[C@H](Cc1ccccc1)NC(=O)[C@@H](NC(=O)CNC(=O)[C@H](CCC(N)=O)NC(=O)[C@H](CO)NC(=O)[C@@H](N)Cc1c[nH]cn1)[C@@H](C)O)[C@@H](C)O)C(=O)N[C@@H](CC(=O)O)C(=O)N[C@@H](CO)C(=O)N[C@@H](CCCNC(=N)N)C(=O)N[C@@H](CCCNC(=N)N)C(=O)N[C@@H](C)C(=O)N[C@@H](CCC(N)=O)C(=O)N[C@@H](CC(=O)O)C(=O)N[C@@H](Cc1ccccc1)C(=O)N[C@H](C(=O)N[C@@H](CCC(N)=O)C(=O)N[C@@H](Cc1c[nH]c2ccccc12)C(=O)N[C@@H](CC(C)C)C(=O)N[C@H](C(=O)N[C@@H](CCCCN)C(=O)NCC(=O)N[C@@H](CCCNC(=N)N)C(N)=O)C(C)C)C(C)C [G1]	
